Measurements taken from the NIST ThermoML archive (doi:10.1021/je0601309).

Conditions: Liquid; for mass density: 298.15 K, 101.33 kPa

CCO [ethanol]
Conditions | mass density [kg/m3]
– | 785.23

Ebulliometric method (Recirculating still)
Conditions | vapor or sublimation pressure [kPa]
329.7 K | 40
336.11 K | 53.33
341.28 K | 66.66
345.65 K | 79.99
349.45 K | 93.32

COC(=O)OC [dimethyl carbonate]
Conditions | mass density [kg/m3] | vapor or sublimation pressure [kPa]
– | 1063.38 | –
336.68 K | – | 40
344.38 K | – | 53.33
350.66 K | – | 66.66
356.01 K | – | 79.99
360.68 K | – | 93.32

CO [methanol]
Conditions | mass density [kg/m3]
– | 786.67

Ebulliometric method (Recirculating still)
Conditions | vapor or sublimation pressure [kPa]
315.74 K | 40
315.87 K | 40
322.17 K | 53.33
322.25 K | 53.33
327.37 K | 66.66
327.45 K | 66.66
331.75 K | 79.99
331.84 K | 79.99
335.56 K | 93.32
335.66 K | 93.32
